pIC50: −log10 of the molar value.
Key:
[1] = biological target: Human recombinant GST-PI3Kγ (Homo sapiens, UniProt P48736); experiment: High Throughput PI3K Lipid Kinase Assay (scintillation proximity assay, neomycin-coated beads); format: biochemical
Procedure: A. a) High Throughput PI3K Lipid Kinase Assay (Binding Assay):
The assay combines the scintillation proximity assay technology (SPA, Amersham) with the capacity of neomycin (a polycationic antibiotic) to bind phospholipids with high affinity and specificity. The Scintillation Proximity Assay is based on the properties of weakly emitting isotopes (such as ^3H, ^125I, ^33P). Coating SPA beads with neomycin allows the detection of phosphorylated lipid substrates after incubation with recombinant PI3K and radioactive ATP in the same well, by capturing the radioactive phospholipids to the SPA beads through their specific binding to neomycin.
To a 384 wells MTP containing 5 μl of the test compound of formula (I) (solubilized in 6% DMSO; to yield a concentration of 100, 30, 10, 3, 1, 0.3, 0.1, 0.03, 0.01, 0.001 μM of the test compound), the following assay components are added. 1) 5 μl (58 ng) of Human recombinant GST-PI3Kγ (in Hepes 40 mM, pH 7.4, DTT 1 mM and ethylenglycol 5%) 2) 10 μl of lipid micelles and 3) 10 μl of Kinase buffer ([^33P]ATP 45 μM/60 nCi, MgCl2 30 mM, DTT 1 mM, β-Glycerophosphate 1 mM, Na3VO4 100 μM, Na Cholate 0.3%, in Hepes 40 mM, pH 7.4). […] After precipitation of the neomycin-coated PVT SPA beads for 5 minutes at 1500×g, radioactive PtdIns(3)P is quantified by scintillation counting in a Wallac MicroBeta™ plate counter. […]

[2] = tested on: C5a-mediated AKT phosphorylation in Raw 264-7 macrophages; experiment: Cell based ELISA: Akt/PKB phosphorylation in macrophages after stimulation with C5a; settings: Mus musculus, 50 nM C5a; for inhibition at 10 µM: RAW264.7, compound at 10 μM; for inhibition at 1 µM: RAW264.7, compound at 1 μM
Procedure: b) Cell Based ELISA to Monitor PI3K Inhibition: Measurement of Akt/PKB phosphorylation in macrophages after stimulation with C5a: Raw 264: Raw 264-7 macrophages (cultured in DMEM-F12 medium containing 10% Fetal Calf serum and antibiotics) are plated at 20'000 cells/well in a 96 MTP 24 h before cell stimulation. Previous to the stimulation with 50 nM of Complement 5a (C5a; which is a well known chemokine which stimulates the used cells) during 5 minutes, Cells are serum starved for 2 h, and pretreated with inhibitors for 20 minutes. After stimulation cells are fixed in 4% formaldehyde for 20 minutes and washed 3 times in PBS containing 1% Triton X-100 (PBS/Triton). Endogenous peroxidase is blocked by a 20 minutes incubation in 0.6% H2O2 and 0.1% Sodium Azide in PBS/Triton and washed 3 times in PBS/Triton. Cells are then blocked by 60 minutes incubation with 10% fetal calf serum in PBS/Triton. Next, phosphorylated Akt/PKB is detected by an overnight incubation at 4° C. with first antibody (anti phospho Serine 473 Akt IHC, Cell Signaling) diluted 800-fold in PBS/Triton, containing 5% bovine serum albumin (BSA). After 3 washes in PBS/Triton, cells are incubated for 60 minutes with a peroxidase conjugated goat-anti-rabbit antibody (1/400 dilution in PBS/Triton, containing 5% BSA), washed 3 times in PBS/Triton, and 2 times in PBS and further incubated in 100 μl of substrate reagent solution (R&D) for 20 minutes. The reaction is stopped by addition of 50 μl of 1 M H2SO4 and absorbance is read at 450 nm. The values indicated reflect the percentage of inhibition of AKT phoshorylation as compared to basal level. Said values show a clear effect of the azolidinone-vinyl fused-benzene compounds on the activation of AKT phosphorylation in macrophages.

spermatozoa = experiment: Sperm cell parameters by computer aided sperm analysis (CASA); format: cell-based, human; settings: 10 μM; sperm samples from oligo-asthenospermic subjects; vs control sample
Excerpt: In the experiments the following examples are based on, standard methods of in vitro fertilization have been used. With regard to the details of these methods, reference is made to the “WHO manual” (WHO laboratory manual for the examination of human semen and sperm-cervical mucus interactions, 4th edition, Cambridge University Press 1999). In particular, the direct swim-up method can be taken from pp. 104 to 106 of this manual.
b) Effect of Example 1 Compound on Further Sperm Cell Parameters:
These parameters are determined by computer aided sperm analysis (CASA) in sperm samples from different oligo-asthenospermic subjects.

Sequence of Human recombinant GST-PI3Kγ (P48736 whole entry): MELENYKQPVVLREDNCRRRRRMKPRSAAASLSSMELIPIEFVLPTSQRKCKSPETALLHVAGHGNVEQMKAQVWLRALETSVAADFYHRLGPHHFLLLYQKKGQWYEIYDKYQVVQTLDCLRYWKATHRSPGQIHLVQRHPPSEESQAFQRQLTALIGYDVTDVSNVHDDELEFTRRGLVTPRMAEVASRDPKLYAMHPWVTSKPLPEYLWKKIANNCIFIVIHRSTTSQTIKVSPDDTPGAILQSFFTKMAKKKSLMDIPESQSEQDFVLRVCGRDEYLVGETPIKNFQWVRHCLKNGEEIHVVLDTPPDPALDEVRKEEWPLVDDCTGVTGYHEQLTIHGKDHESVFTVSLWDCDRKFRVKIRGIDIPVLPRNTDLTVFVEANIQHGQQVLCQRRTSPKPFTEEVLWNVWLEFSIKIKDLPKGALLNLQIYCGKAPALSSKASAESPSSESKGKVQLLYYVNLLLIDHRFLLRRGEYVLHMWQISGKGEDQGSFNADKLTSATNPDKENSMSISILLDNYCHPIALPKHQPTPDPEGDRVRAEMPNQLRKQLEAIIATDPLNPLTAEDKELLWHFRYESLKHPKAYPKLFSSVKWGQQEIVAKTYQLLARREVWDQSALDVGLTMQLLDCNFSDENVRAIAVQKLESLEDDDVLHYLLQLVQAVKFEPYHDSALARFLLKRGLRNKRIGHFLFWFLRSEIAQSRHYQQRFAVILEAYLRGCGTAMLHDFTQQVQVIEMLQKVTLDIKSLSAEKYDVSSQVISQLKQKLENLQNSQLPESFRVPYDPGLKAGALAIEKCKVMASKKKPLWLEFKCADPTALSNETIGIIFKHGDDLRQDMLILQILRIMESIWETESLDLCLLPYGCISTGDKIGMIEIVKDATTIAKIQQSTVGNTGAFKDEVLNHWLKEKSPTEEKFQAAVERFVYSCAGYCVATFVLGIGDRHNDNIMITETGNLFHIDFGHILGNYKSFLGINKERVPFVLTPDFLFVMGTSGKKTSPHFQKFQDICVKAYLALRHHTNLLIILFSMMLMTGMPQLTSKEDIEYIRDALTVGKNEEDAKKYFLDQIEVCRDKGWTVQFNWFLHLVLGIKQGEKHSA

SMILES | inhibition at 10 µM [2] | inhibition at 1 µM [2] | also measured
N=C1NC(=O)/C(=C/c2ccc3ncnc(N4CCCCC4)c3c2)S1 [Example 41, 2-Imino-5-(4-piperidine-quinazolin-6-ylmethylene)-thiazolidin-4-one] |  |  | pIC50 [1]: > 6.00
N=C1NC(=O)/C(=C/c2ccc3nccnc3c2)S1 [Example 66, 2-Imino-5-quinoxalin-6-ylmethylene-thiazolidin-4-one] | ~100% |  | 
O=C1NC(=O)/C(=C/c2ccc3occ(/C=C/C(=O)N4CCCCC4)c3c2)S1 [Example 73, 5-[3-(3-Oxo-3-piperidin-1-yl-propenyl)-benzofuran-5-ylmethylene]-thiazolidine-2,4-dione] |  | 95% | 
O=C1NC(=O)/C(=C/c2ccc3c(c2)OCO3)S1 [Example 1, 5-(1,3-benzodioxol-5-ylmethylene)-1,3-thiazolidine-2,4-dione] | ~100% |  | average path velocity (VAP) (spermatozoa): increased in a statistically significant manner; hyper-activated sperm fraction (HA) (spermatozoa): increased in a statistically significant manner; percentage curvilinear velocity (VCL) (spermatozoa): increased in a statistically significant manner; straight-line velocity (VSL) (spermatozoa): increased in a statistically significant manner
O=C1NC(=O)/C(=C/c2ccc3nsnc3c2)S1 [Example 107, 5-Benzo[1,2,5]thiadiazol-5-ylmethylene-thiazolidine-2,4-ione] | ~100% |  | pIC50 [1]: > 6.00
CN(C)c1ncnc2ccc(/C=C3\SC(=O)NC3=O)cc12 [Example 17, 5-(4-Dimethylamino-quinazolin-6-ylmethylene)-thiazolidine-2,4-dione] |  | 95% | 
O=C1NC(=O)C(=Cc2ccc3ncnc(N4CCCCC4)c3c2)S1 [Example 19, 5-[(4-piperidin-1-ylquinazolin-6-yl)methylene]-1,3-thiazolidine-2,4-dione] | ~100% | 95% | 

— US20050222225A1, “Use of compounds for increasing spermatozoa motility” (APPLIED RESEARCH SYSTEMS ARS HOLDING NV, priority 2002, published 2005)
